In one data set the test system is UUO kidneys. In words: Unilateral ureteral obstruction (UUO) kidney fibrosis model. The data set is classed as in vivo, mouse.
The test system of another data set is lung. The settings on record: in vivo; cited from earlier work.
For the next data set, the system named is human colon cancer cells. The settings on record: cited from earlier work.
Data set [1] concerns 10T1/2 cells. Briefly: Flow cytometric cell-cycle analysis of 10T1/2 cells. It counts as cell-based, mouse. The settings on record: for cell-cycle distribution after siRNA knockdown: siRNA 5 nM vs scrambled siRNA.
The subject of data set [2] is 10T1/2 cells. In words: Western blot of whole cell-lysate from 10T1/2 cells treated with darinaparsin. The data set is classed as cell-based, mouse. The settings on record: darinaparsin 0.5 μM, 72 hours. The text has this:
All cell-lines used within this study were freshly ordered from ATCC and routinely checked for mycoplasma contamination in the inventors' laboratory. 10T1/2 cells (ATCC) and cultured in Basal Medium Eagle (BME, GIBCO; LIFE TECHNOLOGIES) supplemented with 10% fetal bovine serum (FBS), penicillin and streptomycin and 2 mmol/L glutamine (GIBCO). Sonic hedgehog conditioned media was produced from supernatant of confluent Cos7 cells stably transfected with pcDNA3-N-Shh or pcDNA3 control plasmid. For Western blot experiments cells were grown on 10 cm dishes, serum starved in 0.5% FBS for 12 hours and then incubated with darinaparsin (0.5 μM) or vehicle with either Shh preconditioned medium or Cos7 control media (5× i.e., 2 ml preconditioned media in 8 ml BMW 0.5% FBS) for 72 hours.
Kidney tissue was snap frozen in liquid nitrogen and stored at −80° C. immediately after mice were killed. Tissue samples were homogenized in lysis buffer containing 10 mM HEPES, pH 7.4, 0.32M sucrose, 2 mM EDTA, 1 mM DTT, 1 mM PMSF and 1 protease inhibitor tablet per 10 ml of lysis buffer (ROCHE Cat. No. 11836153001). Samples were sonicated and protein concentration was determined by the Bradford Assay using BIO-RAD Protein Assay Dye (BIORAD, Cat. No. 500-0006). 10-40 μg of protein from lysates was loaded on a 7.5 or 10% polyacrylamide gel and separated by SDS electrophoresis. Proteins were transferred to a IMMOBILON membrane (MILLIPORE) blocked in 5% milk in PBST, probed overnight at 4° C. with the primary antibodies: mouse anti-αSMA at 1:4000 (SIGMA, Cat. #A2547), rabbit anti-fibronectin at 1:4000 (ABCAM, #ab23750), rabbit anti-p21 at 1:200 (SANTA CRUZ BIOTECHNOLOGIES, #sc-471), rabbit anti-phospho-retinoblastoma(72) at 1:1000 (CELL SIGNALING #9307S, Ser780), rat anti-Gli1 at 1:1000 (R&D Systems #MAB3324), goat anti-Gli2 at 1:500 (R&D Systems #AF3635), rabbit anti-Cyclin Eat 1:200 (SANTA CRUZ #sc-481), rabbit anti-Cyclin A at 1:200 (SANTA CRUZ BIOTECHNOLOGIES #sc-751), rabbit anti-HA-Tag at 1:5000 (CELL SIGNALING #3724), mouse anti-c-myc (DSHB, Iowa, 9E 10) and rabbit anti-GAPDH at 1:4000 (BETHYL LABORATORIES, #A300-641A). Following incubation with primary antibody blots were washed probed with respective horseradish-peroxidase conjugated secondary antibodies at 1:5000 (DAKO, Cat. No. P0447, P0448, P0450) for 1 hour at room temperature and then visualized using the Western Lightning ECL kit from PERKINELMER (#NEL100001EA). Quantification of western bands was performed using ImageJ (NIH).
(Immunoblotting shows a protein as a band on a membrane.)

The next data set deals with T1, Gli2 (Homo sapiens, UniProt P10070).
T1 construct: 293T cells were transfected with full length Gli2-myc and treated with darinaparsin (DAR) or vehicle (VEH); host or cells: Human 293T/17 (HEK 293T/17, ATCC)
T1 sequence (P10070 whole entry): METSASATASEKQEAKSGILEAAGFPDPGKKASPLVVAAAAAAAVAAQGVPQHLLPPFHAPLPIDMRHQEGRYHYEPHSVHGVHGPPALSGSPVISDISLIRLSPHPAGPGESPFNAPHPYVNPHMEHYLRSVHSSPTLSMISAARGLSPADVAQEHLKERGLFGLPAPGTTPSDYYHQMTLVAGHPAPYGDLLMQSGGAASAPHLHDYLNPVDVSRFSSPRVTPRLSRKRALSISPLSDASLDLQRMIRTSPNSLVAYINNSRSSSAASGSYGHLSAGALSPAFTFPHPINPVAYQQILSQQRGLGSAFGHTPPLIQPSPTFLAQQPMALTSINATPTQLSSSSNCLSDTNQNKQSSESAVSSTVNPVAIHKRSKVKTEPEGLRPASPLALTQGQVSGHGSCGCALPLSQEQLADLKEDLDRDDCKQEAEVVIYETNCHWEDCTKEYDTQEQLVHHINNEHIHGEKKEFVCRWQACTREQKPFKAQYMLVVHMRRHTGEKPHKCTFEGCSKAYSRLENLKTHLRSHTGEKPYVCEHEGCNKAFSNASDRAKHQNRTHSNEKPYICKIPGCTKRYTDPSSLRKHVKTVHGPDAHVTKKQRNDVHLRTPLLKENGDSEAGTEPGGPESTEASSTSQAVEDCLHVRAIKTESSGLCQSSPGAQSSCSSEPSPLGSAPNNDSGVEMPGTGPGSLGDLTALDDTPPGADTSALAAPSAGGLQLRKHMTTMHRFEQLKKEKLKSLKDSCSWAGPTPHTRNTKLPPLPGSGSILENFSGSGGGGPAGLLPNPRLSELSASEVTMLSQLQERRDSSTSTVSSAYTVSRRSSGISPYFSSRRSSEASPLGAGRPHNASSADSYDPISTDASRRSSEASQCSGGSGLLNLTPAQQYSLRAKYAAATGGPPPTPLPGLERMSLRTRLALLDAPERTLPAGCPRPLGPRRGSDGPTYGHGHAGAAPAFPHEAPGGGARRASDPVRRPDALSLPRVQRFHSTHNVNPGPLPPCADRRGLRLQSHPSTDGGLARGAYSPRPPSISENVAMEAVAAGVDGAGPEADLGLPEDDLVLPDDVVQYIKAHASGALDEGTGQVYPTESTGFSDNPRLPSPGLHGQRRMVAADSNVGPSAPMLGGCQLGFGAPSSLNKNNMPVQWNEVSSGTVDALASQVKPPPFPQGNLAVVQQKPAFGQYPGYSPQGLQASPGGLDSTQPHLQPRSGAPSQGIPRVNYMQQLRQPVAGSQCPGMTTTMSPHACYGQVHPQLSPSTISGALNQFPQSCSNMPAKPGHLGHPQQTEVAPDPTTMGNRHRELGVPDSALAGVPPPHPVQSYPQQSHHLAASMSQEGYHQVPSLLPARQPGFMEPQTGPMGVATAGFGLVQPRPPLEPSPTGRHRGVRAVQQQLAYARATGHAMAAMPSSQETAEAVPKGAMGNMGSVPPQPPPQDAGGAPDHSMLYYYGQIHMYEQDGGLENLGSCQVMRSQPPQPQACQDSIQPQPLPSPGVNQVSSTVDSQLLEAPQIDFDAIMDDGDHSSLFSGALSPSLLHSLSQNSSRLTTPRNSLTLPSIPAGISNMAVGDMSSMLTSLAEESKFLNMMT
Briefly: Gli2 darinaparsin binding assay (GST agarose bead pull-down). The settings on record: 293T cells; for binding to Gli2 (pull-down of myc-tagged Gli2 with GST beads): 0.5 μM darinaparsin or vehicle. As for the experimental part:
Human 293T/17 (HEK 293T/17, freshly ordered from ATCC) were grown in a 10 cm cell-culture dish until 80% confluent and transfected with pCS2-MT Gli2 FL kindly provided by Dr. Roessler (49) (ADDGENE Plasmid 17648: pCS2-MT GLI2 FL) using Lipofectamine 2000 (LIFE TECHNOLOGIES) according to the manufacturer instructions. 72 hours after transfection the cells were treated with 0.5 μM darinaparsin or vehicle in DMEM 10% FBS for 12 hours, thereafter cells were resuspended in cold (4° C.) PBS and washed twice with PBS. After centrifugation (1500 rpm, 5 minutes) 1 ml of IP-Lysis Buffer (THERMO SCIENTIFIC)+proteinase inhibtior (ROCHE, #1183617000T) was added to the cell pellet and the suspension was homogenized using an insulin syringe. After centrifugation of the protein-solution (15 min, 12000 rpm) the supernatant was transferred into a fresh tube, an aliquot of 100 μl was taken as input control (FIG. 24) and the solution was incubated with 50 μl GST-Agarose beads (PIERCE GST Agarose #20211, THERMO SCIENTIFIC) for 4 hours on a rotator at 4° C. Thereafter the bead-protein solution was centrifuged (5000 rpm, 3 min) and the supernatant was taken as outflow control (FIG. 24), the agarose beads were washed three times by adding 1 ml of the above mentioned IP-Lysis buffer containing proteinase inhibitors followed by vortexing and centrifugation (5000 rpm, 3 min), the supernatant after each centrifugation was discarded. After 3 washes, the GST beads were cooked at 96° C. for 7 minutes in 100 μl Laemmli buffer (BIO-RAD). All protein samples (input, outflow and the final GST bead purification solution) were analysed by western blot with an antibody against c-myc (mouse monoclonal, 9E 10, DSHB, Iowa) the membrane was stained with Ponceau-S (SIGMA) to show specificity (FIG. 6H).

The test system of the next data set is kidney. Conditions: mouse, in vivo.
For data set [3] the following is noted: cited from earlier work.
The test system of data set [4] is ATO resistant myeloma cell-lines. Conditions: cited from earlier work.
The next data set relates to Gli1 and Gli2. Conditions: cited from earlier work.
The subject of the next data set is Gli1+ MSC. Briefly: Myofibroblast differentiation of Gli1+ MSC in vitro upon TGF-β. Conditions: for αSMA expression: Gli1+ MSC from bone marrow / bone chips or heart. The data set is classed as cell-based, mouse.
Data set [5] concerns 10T1/2 cells. In words: siRNA knockdown in 10T1/2 cells, mRNA and protein levels. It counts as cell-based, mouse. As for the experimental part:
For siRNA experiments cells were transfected with siRNA against Gli1 (LIFE SCIENCES, siRNA ID: s66723, Sequence 5'3' Sense: […] NO: 11), Antisense: […] NO: 12)), Gli2 (LIFE SCIENCES, siRNA ID: s66726, Sequence 5'3' Sense: […] NO: 13), Antisense: […] Transfection was performed with a final concentration of 5 nM of each siRNA according to the manufacturer instructions using LIPOFECTAMINE RNAiMAX transfection reagent (LIFE TECHNOLOGIES, #3778075). 72 hours after transfection cells were harvested for RNA or protein isolation. […] Kidney tissue or cell-pellets were harvested and immediately snap frozen in liquid nitrogen. RNA was extracted according to the manufacturer instructions using the RNeasy Mini Kit (QIAGEN) and 600 ng of total RNA was reverse transcribed with iScript (BIORAD). Quantitative polymerase chain reactions were carried out with iQ-SYBR Green supermix (BIORAD) and the BIORAD CFX96 Real Time System with the C1000 Touch Thermal Cycler. […] Glyceraldehyde-3-phosphate dehydrogenase (GAPDH) was used as a housekeeping gene. Data was analyzed using the 2-ΔΔct method. Kidney tissue was snap frozen in liquid nitrogen and stored at -80° C. immediately after mice were killed. Tissue samples were homogenized in lysis buffer containing 10 mM HEPES, pH 7.4, 0.32M sucrose, 2 mM EDTA, 1 mM DTT, 1 mM PMSF and 1 protease inhibitor tablet per 10 ml of lysis buffer (ROCHE Cat. No. 11836153001). Samples were sonicated and protein concentration was determined by the Bradford Assay using BIO-RAD Protein Assay Dye (BIORAD, Cat. No. 500-0006). 10-40 μg of protein from lysates was loaded on a 7.5 or 10% polyacrylamide gel and separated by SDS electrophoresis. […] Following incubation with primary antibody blots were washed probed with respective horseradish-peroxidase conjugated secondary antibodies at 1:5000 (DAKO, Cat. No. P0447, […]) for 1 hour at room temperature and then visualized using the Western Lightning ECL kit from PERKINELMER (#NEL100001EA). Quantification of western bands was performed using ImageJ (NIH).

Where [6] appears, read: GANT61 after UUO, UUO kidneys vs vehicle.
The mark [7] stands for this setting: GANT61 after UUO, listed as Gant61.
[8] abbreviates: siRNA 5 nM, 72 hours after transfection.

Entries after “also recorded” stand apart in the source; their conditions may differ.

`CN(C)c1ccccc1CN1CCCN(Cc2ccccc2N(C)C)C1c1ccncc1` [GANT61]: the “interstitial fibrosis (scoring of trichrome stained sections)” value in the data set with UUO kidneys (GANT61 50 mg/kg s.c. at day 1, 2, 3, 5, 7 and 9 after UUO, vs vehicle, 50 mg/kg) is “significantly reduced; also recorded: significantly less fibrosis”. In the data set on UUO kidneys (GANT61 after UUO), the “Gli1 protein level of UUO kidneys” value was “significantly reduced”, the “Gli2 protein level of UUO kidneys” value is “significantly reduced”, the “mRNA expression of hedgehog readout Gli1” value is “reduced” and the “mRNA expression of hedgehog readout Ptch1” value is reported as “reduced”. Also, in the data set on UUO kidneys (setting [6]), the “expression of fibrotic readout Coiled” value was “significantly reduced; also recorded: significant lower expression”, the “expression of fibrotic readout fibronectin” value is “significantly reduced; also recorded: significant lower expression” and the “expression of fibrotic readout α-SMA” value was “significantly reduced; also recorded: significant lower expression”. Further, in the data set with UUO kidneys (setting [7]), the “mRNA expression of hedgehog readout Gli1” value is “significant reduction” and the “mRNA expression of hedgehog readout Ptch1” value was “significant reduction”. For the same compound, in the data set on lung, the “fibrosis severity in bleomycin induced lung fibrosis” value is “decreased fibrosis severity”. In addition, in the data set with human colon cancer cells, the “cell cycle of human colon cancer cells” value is recorded as “induced a G0/G1 arrest” and the “p21 in human colon cancer cells” value is recorded as “upregulation”.

As to `CS(=O)(=O)c1ccc(C(=O)Nc2ccc(Cl)c(-c3ccccn3)c2)c(Cl)c1` [GDC-0449], the “fibrosis severity in bleomycin induced lung fibrosis” value with lung was “did not show this effect”.

Turning to `C[As](C)SC[C@H](NC(=O)CC[C@H](N)C(=O)O)C(=O)NCC(=O)O` [darinaparsin, S-dimethylarsino-glutathione], in the data set on 10T1/2 cells [1] (10T1/2 cells with retroviral full-length Gli2 vs control virus), the “cell-cycle effect of darinaparsin upon Gli2 overexpression” value is recorded as “rescued the cell-cycle effect; also recorded: rescues the cell cycle effect”. Moreover, in the data set on 10T1/2 cells [1] (darinaparsin 0.5 μM vs vehicle, BrdU/7AAD flow cytometry), the “cell-cycle distribution of 10T1/2 cells” value was “induces a G0/G1 cell cycle arrest”. Also, in the data set on 10T1/2 cells [2], the Gli1 protein level result was “reduced”, the Gli2 protein level entry is “reduced”, the p21 level result is recorded as “upregulation” and the p-Rb level entry is given as “decreased levels”. Also, the “enrichment of other nonspecific proteins (Ponceau staining)” value on Gli2 (0.5 μM darinaparsin) is “did not result in enrichment”. Moreover, the “binding to Gli2 (pull-down of myc-tagged Gli2 with GST beads)” value at Gli2 was “binds directly to Gli2”. Besides, the “binding to Gli2 (pull-down of myc-tagged Gli2 with GST beads)” value on Gli2 (listed as DAR) was “able to pull down Gli2”. Moreover, the fibrotic readouts entry in the data set with UUO kidneys (mouse, in vivo) was “substantial reductions”. In addition, in the data set on kidney, the BUN levels entry is reported as “lower” and the interstitial fibrosis result is recorded as “reduced”. In data set [3] (compared to ATO), the systemic toxicity entry was “significantly lower”. Besides, the “tolerated maximum dose compared to ATO” value in [3] (higher than ATO) is 50 fold. Also, in [3] (reported by Tian et al.), the “side effect on fast cycling cell populations as the bone marrow or intestine” value is “no significant side effect”. For the same compound, the “susceptibility of ATO resistant myeloma cell-lines” value in data set [4] is “susceptible”.

In the case of Arsenic trioxide [ATO], in the data set on Gli1 and Gli2, the “antagonism of Gli1 and Gli2” value is “antagonize both Gli1 and Gli2”.

For the compound TGF-β, the figures for the αSMA expression entry in the data set on Gli1+ MSC and in the data set with Gli1+ MSC (listed as TGFβ) were “acquired expression” and “robust upregulation”, respectively. The “induction of αSMA” value in the data set with Gli1+ MSC (bone marrow-derived Gli1+ MSC purified by FACS) came to 45 ×.

Take “siRNA against Gli1: siRNA ID s66723, SEQ ID NO: 11 and 12 (chain 1 GCAGGUCUCCUAUCCUGAUTT; chain 2 NAUCAGGAUAGGAGACCUGCTG; chemistry not given here)”: the “cell-cycle distribution after siRNA knockdown” value in the data set with 10T1/2 cells [1] is “had no effect”. In addition, the “mRNA and protein levels of Gli1” value in the data set on 10T1/2 cells [5] (setting [8]) is “reduced”.

Consider “siRNA directed against Gli2: siRNA ID s66726, SEQ ID NO: 13 and 14 (chain 1 GGAAAACUUCAACAAUACATT; chain 2 UGUAUUGUUGAAGUUUUCCAG; chemistry not given here)”, for which the “cell-cycle distribution after siRNA knockdown” value in the data set with 10T1/2 cells [1] was “G0/G1 arrest”. For the same compound, in the data set with 10T1/2 cells [5] (setting [8]), the Gli2 expression entry is listed as “reduced”; the “mRNA and protein levels of Gli1” value is “reduced”. In the data set on 10T1/2 cells [5] (siRNA knockdown, western blot), the p21 level result is recorded as “increased levels” and the “phosphorylated retinoblastoma (Ser780) level” value is on record as “reduced levels”.

Values taken from US9970935B2, “Uses of GLI1 in detecting tissue fibrosis” (THE BRIGHAM AND WOMEN'S HOSPITAL, INC., priority 2014, dated 2018).
